From patent publication US20230352136A1, “SYSTEMS AND METHODS TO EVALUATE DRUG-INDUCED GASTROINTESTINAL DYSRHYTHMIA” (The Chinese University of Hong Kong, priority 2022, published 2023)

Tested on: ileum pacemaker potentials
Assay: MEA recording of pacemaker potentials (slow waves), isolated ileum
Type: cell-based, Suncus murinus
Conditions: ileal tissues
Experimental: Pacemaker potentials were recorded extracellularly on a 60-channel MEA system using full-thickness GI segments isolated from Suncus murinus. Basic slow-wave parameters, including frequency, amplitude, slope, period, and power partitions, were derived. Signal regularity was also evaluated using detrended fluctuation analysis and sample entropy analysis.
Electrical recordings were taken after the animals were euthanised by carbon dioxide asphyxiation. […] The mesentery was removed, and the lumen contents were flushed with Krebs' medium. Segments (−1 cm) of duodenum, ileum, and colon were then isolated, but the stomach was kept intact. All tissue segments and the entire stomach were incubated in Krebs' medium containing nifedipine (1 μM; Sigma Aldrich, St Louis, MO, USA) for 15 min to inhibit smooth muscle activity. Pacemaker potentials were recorded using an MEA platform (MEA1060 1200×; Multichannel Systems, Reutlingen, Germany) as previously described. Briefly, tissues were placed onto the electrode field of an MEA chip (60-channel, 8×8 configuration, 3D-tip-shaped electrodes with a height of […] and an inter-electrode distance of 200 μm; Ayanda Biosystems SA, Lausanne, Switzerland). Intestinal segments were aligned horizontally to the recording electrode field, while the stomach was oriented with the antrum facing the recording electrode field. The chamber temperature was maintained at 37° C. and the sampling frequency was 1 kHz. […] All data were recorded and saved using MC_Rack (v 4.6.2, Multichannel Systems).
Data analysis included basic slow-wave feature extraction using a custom automated program. […] The time point of drug administration was automatically identified based on the signal disturbance. The period of signal disturbance (20 s before and 40 s after the peak of the disturbance) was excluded from the analysis. Data were filtered using a passband between 0.1 Hz and 1 Hz and a stopband between 0.01 Hz and 2 Hz. The basic slow-wave features extracted were similar to those extracted in the inventors' previous studies. However, instead of using several templates and scripts written in Microsoft Excel and Spike 2, a one-step automatic and blinded MATLAB programme was used for data analysis. There were four major changes to the data analysis process as compared to the inventors' previous studies. First, auto-identification of the drug disturbance time point was used, rather than manual identification. Second, standardised signal filters were built in MATLAB to match the entire data analysis pipeline. […] Frequency partitioning was performed by segmenting the power spectrum of 0-50 cpm into the following four segments: brady-rhythm (within the range 2-[DF−1] cpm), normal-rhythm ([DF±1] cpm), tachy-rhythm (within the range [DF+1]-40 cpm), and out-of-range frequencies (<2 cpm and >40 cpm). Third, waveforms were identified using the MATLAB ‘findpeaks’ function, with a minimum peak height of […] at baseline and […] after drug treatment, with a step time of 5.4 s for the intestine and 12 s for the stomach. The average peak-to-peak amplitude, slope, and period were derived for all detected waveforms. Fourth, propagation velocity was derived using phase-difference measurements, based on the auto-select seed electrode with the highest percentage of normal rhythms.
Dominant activation pattern identification included a phase-based analysis performed as previously described (Liu et al., 2021). Briefly, high-frequency spikes with amplitudes greater than […] were masked. Continuous frequencies were identified using continuous wavelet transformation, and the transformed data were used to plot spectrograms. […] High quality data were subjected to Hilbert transformation to identify the phase and frequency of the signals. Individual activation times were clustered using k-means clustering every 20 s and major activation patterns were grouped using a structural similarity index.

## Cl.NCCc1ccc(O)c(O)c1 [dopamine, 3-Hydroxytyramine hydrochloride]
100 nM, baseline 15.6±10.3, p<0.05, n=7
  percentage of dominant patterns (based on post-treatment data, FIG. 3E), second pattern: 4.2±4.2%
100 nM, baseline 16.8±6.6, p<0.01, n=7
  percentage of dominant patterns (based on post-treatment data, FIG. 3E), third pattern: 3.0±2.6%
100 nM, baseline 17.2±4.8, p<0.0001, n=7
  percentage of dominant baseline activation patterns, third pattern: 2.2±2.6%
100 nM, baseline 21.5±1.7, p<0.0001, n=7
  percentage of dominant baseline activation patterns, second pattern: 2.6±1.6%
100 nM, baseline 23.5±3.0, p<0.05, n=7
  average frequency (AF): 19.4±3.6 cpm
100 nM, baseline 31.8±11.7, p<0.05, n=7
  percentage of brady-rhythms: 60.0±26.0%
100 nM, baseline 32.8±5.7, p<0.01, n=7
  percentage of dominant baseline activation patterns, first pattern: 3.8±4.5%
100 nM, baseline 46.1±5.6, p<0.01, n=7
  percentage of normal rhythms: 4.8±17.0%
100 nM, baseline 165.2±20.5, p<0.001, n=7
  amplitude of slow waves: 119.2±20.0 μV
100 nM, baseline 257.5±59.8, p<0.01, n=7
  slope of waveforms: 160.1±42.0 μV s^−1
100 nM, baseline 780.4±276.9, p<0.001, n=7
  dominant power (DP) of slow waves: 177.5±83.0 μV^2
1 μM, baseline 1.78±0.24, p<0.05, n=8
  DFA fluctuation function (larger scale 26-46): 1.64±0.28
1 μM, baseline 6.3±0.8, p<0.05, n=7
  number of groups of activation patterns: 7±0.8
1 μM, baseline 8.9±9.0, p<0.01, n=6
  percentage of dominant patterns (based on post-treatment data, FIG. 3E), first pattern: 31.4±13.7%
1 μM, baseline 27.5±7.8, p<0.05, n=7
  percentage of brady-rhythms: 46.3±22.7%
1 μM, baseline 35.2±6.0, p<0.001, n=6
  percentage of dominant baseline activation patterns, first pattern: 13.0±6.7%
1 μM, baseline 50.6±10.8, p<0.01, n=7
  percentage of normal rhythms: 24.5±11.8%
1 μM, baseline 187.1±76.9, p<0.01, n=7
  amplitude of slow waves: 138.0±66.2 μV
1 μM, baseline 300.9±117.5, p<0.01, n=7
  slope of waveforms: 204.4±91.9 μV s^−1
1 μM, baseline 1,070.5±745.1, p<0.05, n=7
  dominant power (DP) of slow waves: 460.3±297.0 μV^2
10 μM
  representative spectrogram (left), effect on DF: slightly shifted towards a higher frequency
  representative spectrogram (right), effect: extra peaks appearing to the left of the baseline DF
10 μM, 26 before treatment
  wave fronts counted in representative spatio-temporal map (1 min): 30
10 μM, baseline 2.30±0.18, p<0.05, n=6
  waveform period: 3.05 ± 0.68 s
10 μM, baseline 9.3±0.7, p<0.05, n=6
  number of groups of activation patterns: 6.9±1.0
10 μM, baseline 17.2±11.5, p<0.05, n=5
  percentage of dominant patterns (based on post-treatment data, FIG. 3E), first pattern: 32.3±13.2%
10 μM, baseline 32.8±12.9, p<0.05, n=6
  percentage of brady-rhythms: 63.3±28.5%
10 μM, baseline 35.7±8.4, p<0.05, n=5
  percentage of dominant baseline activation patterns, first pattern: 19.2±16.4%
10 μM, baseline 50.9±9.8, p<0.0001, n=6
  percentage of normal rhythms: 9.2±10.9%
10 μM, baseline 229.6±115.9, p<0.05, n=6
  amplitude of slow waves: 149.1±56.7 μV
10 μM, baseline 383.7±185.8, p<0.05, n=6
  slope of waveforms: 238.2±95.7 μV s^−1
100 μM, baseline 1.63±0.23, p<0.05, n=7
  DFA fluctuation function (larger scale 26-46): 1.43±0.21
100 μM, baseline 2.35±0.12, p<0.05, n=7
  DFA fluctuation function (smaller scale 3-25): 2.25±0.05
100 μM, baseline 17.8±7.4, p<0.05, n=4
  percentage of dominant patterns (based on post-treatment data, FIG. 3E), third pattern: 6.8±6.1%
100 μM, baseline 19.1±2.8, p<0.01, n=4
  percentage of dominant baseline activation patterns, third pattern: 5.9±6.6%
100 μM, baseline 23.5±2.8, p<0.001, n=4
  percentage of dominant baseline activation patterns, second pattern: 5.7±5.1%
100 μM, baseline 27.6±4.1, p<0.01, n=4
  percentage of dominant baseline activation patterns, first pattern: 9.4±9.5%
0.1-100 μM, p>0.05, n=6-7
  dominant frequency (DF), change vs baseline: No significant differences
  propagation velocities, effect: did not affect
0.1-100 μM, p>0.05, n=6-8
  average SampEn (larger scale 6-50), effect: did not change
  average SampEn (smaller scale 1-5), effect: did not change
1 M, baseline 2.29±0.23, p<0.05, n=8
  DFA fluctuation function (smaller scale 3-25): 2.19±0.20
1 M, baseline 2.53±0.50, p<0.05, n=7
  waveform period: 3.10 ± 0.74 s
10 M, baseline 2.24±0.32, p<0.05, n=8
  DFA fluctuation function (smaller scale 3-25): 2.13±0.34
